Experimental data as given in ChEMBL document CHEMBL5729111, “CD73 inhibitors and therapeutic uses thereof” (2022).

Target: 5'-nucleotidase (Homo sapiens, UniProt P21589)
Experiment: Enzyme Activity In Vitro Assay: I. Experimental Materials and Equipment1. Malachite green phosphate detection kit (R & D Systems, Cat #, DY996)2. Recombinant human 5′-nucleotidase (CD73) (R & D Systems, Cat #, 5795-EN)3. HEPES buffer (Gibco, Cat #, 15630-080)4. CMP (Sigma, Cat #, C1006)5. DMSO (Fisher Chemical, Cat #, D128-1)6. NaCl 5M (Boston Bioproducts, Cat #, BM-244)7.384-well plate (Fisher, Cat #, 5795-EN)8. TECAN plate reader (TECAN)II. Experimental ProcedureCompounds are first dissolved in DMSO to 10 mM as a stock solution. When determining the IC50 of the compound, prepare 3-fold serial dilutions with a highest concentration of 125 μM for a total of 12 concentration points and ensure each dilution containing equal amount of DMSO. In each well of 384-well plate, 0.34 nM of recombinant human 5′-nucleotidase (CD73) was pre-incubated at 37° C. for 2 hours with the compounds tested in assay buffer containing 20 mM HEPES buffer (pH 7.4), 137 mM NaCl, 0.001% Tween 20. The final reaction volume of the reaction in each well was 12 μL. The highest concentration of compound was 125 μM and the DMSO concentration was 1.25%. After pre-incubation, 3 μL of CMP dissolved in assay buffer was added to each reaction. The final CMP concentration was 45 μM. The reaction was incubated at 37° C. for 15 minutes. Then 3 μL of Malachite Green Reagent A was added to each reaction. […]

Sequence of 5'-nucleotidase (P21589 whole entry): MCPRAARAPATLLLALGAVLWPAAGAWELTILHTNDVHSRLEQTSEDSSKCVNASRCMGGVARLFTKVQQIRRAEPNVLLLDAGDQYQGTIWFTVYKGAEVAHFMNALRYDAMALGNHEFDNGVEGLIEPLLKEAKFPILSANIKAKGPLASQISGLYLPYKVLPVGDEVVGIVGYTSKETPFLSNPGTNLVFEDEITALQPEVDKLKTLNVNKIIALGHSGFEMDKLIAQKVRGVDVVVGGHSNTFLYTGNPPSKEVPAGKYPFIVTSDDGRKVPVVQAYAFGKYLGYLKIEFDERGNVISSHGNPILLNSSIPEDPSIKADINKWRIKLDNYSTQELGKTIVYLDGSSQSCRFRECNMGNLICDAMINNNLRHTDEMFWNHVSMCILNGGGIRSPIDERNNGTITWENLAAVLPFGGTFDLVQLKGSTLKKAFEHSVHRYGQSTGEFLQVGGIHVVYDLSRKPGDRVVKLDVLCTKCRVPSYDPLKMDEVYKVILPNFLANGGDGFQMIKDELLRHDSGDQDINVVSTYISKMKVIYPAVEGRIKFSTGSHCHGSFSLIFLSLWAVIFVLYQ

Q: Which IC50 does the source give for `CC(OC(=O)C(C)(C)C)OP(=O)(COC[C@H]1O[C@@H](n2ncc3c(N4CC5(CCc6ccccc65)C4)nc(Cl)nc32)[C@H](O)[C@@H]1O)OC(C)OC(=O)C(C)(C)C` (stereo partly specified) here?
A: The IC50 was 270 nM.
